Measurements reported in article PMC8446315, “Synthesis, biological evaluation, molecular modeling, and structural analysis of new pyrazole and pyrazolone derivatives as N‐formyl peptide receptors agonists” (Chemical Biology & Drug Design, 2021).
Like-named read-outs stand apart in the source and are kept apart here.

What was measured:
[1] = test system: healthy human subject; parameters: method as in Lind et al., 2019; Stalder et al., 2017; conditions: phase I clinical trial, ref Lind et al., 2019, Stalder et al., 2017; cited from earlier work
[2] = test system: rat model of rheumatoid arthritis; parameters: method as in Crocetti et al., 2020; conditions: ref Crocetti et al., 2020; cited from earlier work
[3] = target: T1, FPR1 (Homo sapiens, UniProt P21462); assay: Ca2+ mobilization in FPR1-transfected HL60 cells; assay type: cell-based; conditions: for efficacy (%) HL60‐FPR1: % of the response induced by 5 nM fMLF
T1 construct: expressed in transfected cells
T1 sequence (P21462 1-350): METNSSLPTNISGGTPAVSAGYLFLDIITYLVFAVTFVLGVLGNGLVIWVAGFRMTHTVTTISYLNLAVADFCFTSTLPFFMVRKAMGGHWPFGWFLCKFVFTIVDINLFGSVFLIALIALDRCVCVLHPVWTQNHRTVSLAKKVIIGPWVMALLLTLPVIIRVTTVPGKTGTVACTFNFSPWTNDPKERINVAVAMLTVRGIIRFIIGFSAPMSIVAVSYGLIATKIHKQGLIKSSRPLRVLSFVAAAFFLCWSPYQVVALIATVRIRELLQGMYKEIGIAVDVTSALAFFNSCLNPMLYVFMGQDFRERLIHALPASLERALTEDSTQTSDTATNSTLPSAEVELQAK
Description: (§1) Although stable cell lines are cultured under G418 selection pressure, G418 may affect some assays, so it was removed in the last round of culture before assays were performed.
(§2) Changes in intracellular Ca^2+ were measured with a FlexStation II scanning fluorometer (Molecular Devices). The cells, suspended in Hank's balanced salt solution without Ca^2+ and Mg^2+ but with 10 mM HEPES (HBSS^‐), were loaded with 1.25 μg/ml Fluo‐4 a.m. dye and incubated for 30 min in the dark at 37°C. After dye loading, the cells were washed with HBSS^‐ containing 10 mM HEPES, resuspended in HBSS^+ containing Ca^2+, Mg^2+, and 10 mM HEPES (HBSS^+), and aliquoted into the wells of flat‐bottom, half‐area‐well black microtiter plates (2 × 10^5 cells/well). For evaluation of direct agonist activity, compounds of interest were added from a source plate containing dilutions of test compounds in HBSS^+, and changes in fluorescence were monitored (λex = 485 nm, λem = 538 nm) every 5 s for 240 s at room temperature after automated addition of compounds. Maximum change in fluorescence during the first 3 min, expressed in arbitrary units over baseline, was used to determine a response. […] Curve fitting (5–6 points) and calculation of median effective inhibitory concentrations (IC50) were performed by nonlinear regression analysis of the dose–response curves generated using Prism 7 (GraphPad Software, Inc.).

[4] = test system: human neutrophils (hPMN); assay: Ca2+ mobilization in human neutrophils (hPMN); assay type: cell-based; conditions: for efficacy (%) hPMN: % of the response induced by 5 nM fMLF; for EC50: Homo sapiens, Neutrophil
From the text: Blood was collected from healthy donors in accordance with a protocol approved by the Institutional Review Board at Montana State University. Neutrophils were purified from the blood using dextran sedimentation, followed by Histopaque 1077 gradient separation and hypotonic lysis of red blood cells. Isolated neutrophils were washed twice and resuspended in HBSS^‐. Neutrophil preparations were routinely >95% pure, as determined by light microscopy, and >98% viable, as determined by trypan blue exclusion.
Changes in intracellular Ca^2+ were measured with a FlexStation II scanning fluorometer (Molecular Devices). The cells, suspended in Hank's balanced salt solution without Ca^2+ and Mg^2+ but with 10 mM HEPES (HBSS^‐), were loaded with 1.25 μg/ml Fluo‐4 a.m. dye and incubated for 30 min in the dark at 37°C. After dye loading, the cells were washed with HBSS^‐ containing 10 mM HEPES, resuspended in HBSS^+ containing Ca^2+, Mg^2+, and 10 mM HEPES (HBSS^+), and aliquoted into the wells of flat‐bottom, half‐area‐well black microtiter plates (2 × 10^5 cells/well). For evaluation of direct agonist activity, compounds of interest were added from a source plate containing dilutions of test compounds in HBSS^+, and changes in fluorescence were monitored (λex = 485 nm, λem = 538 nm) every 5 s for 240 s at room temperature after automated addition of compounds. Maximum change in fluorescence during the first 3 min, expressed in arbitrary units over baseline, was used to determine a response. […] Curve fitting (5–6 points) and calculation of median effective […] were performed by nonlinear regression analysis of the dose–response curves generated using Prism 7 (GraphPad Software, Inc.).

[5] = target: T2, FPR2 (Homo sapiens, UniProt P25090); assay: Ca2+ mobilization in FPR2-transfected HL60 cells; assay type: cell-based; conditions: for efficacy (%) HL60‐FPR2: % of the response induced by 5 nM WKYMVm
T2 construct: expressed in transfected cells
T2 sequence (P25090 1-351): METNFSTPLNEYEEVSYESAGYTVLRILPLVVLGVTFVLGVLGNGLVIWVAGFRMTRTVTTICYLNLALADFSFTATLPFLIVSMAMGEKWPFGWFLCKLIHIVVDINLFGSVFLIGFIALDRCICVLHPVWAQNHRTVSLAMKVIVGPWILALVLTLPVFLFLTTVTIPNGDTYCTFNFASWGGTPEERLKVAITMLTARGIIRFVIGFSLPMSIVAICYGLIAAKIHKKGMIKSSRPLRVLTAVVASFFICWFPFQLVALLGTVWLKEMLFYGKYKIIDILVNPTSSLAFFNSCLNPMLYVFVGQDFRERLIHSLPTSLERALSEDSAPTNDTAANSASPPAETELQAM
Description: as §1, §2

[6] = test system: animal models of rheumatoid arthritis; parameters: method as in Burli et al., 2006; Odobasic et al., 2018; conditions: ref Burli et al., 2006; Odobasic et al., 2018; cited from earlier work
[7] = test system: FPR3; conditions: Figure 2, ref Vergelli et al., cited from earlier work
[8] = Ca2+ mobilization, mean of three independent experiments, N.A. = no activity (limits efficacy <20% and EC50 < 50 µM)

Structure (SMILES)	melting point	efficacy (%) HL60‐FPR1 [3] [%]	efficacy (%) hPMN [4] [%]	EC50 [4] [µM]	EC50 [5] [µM]	efficacy (%) HL60‐FPR2 [5] [%]	further results
Cc1cccc(-c2oc(C)nc2C(=O)Nc2cnn(Cc3nc(C(C)(F)F)co3)n2)c1 [Act‐389949]	–	–	–	–	–	–	safety and tolerability [1]: safe and well tolerated
COc1cccc(-c2cc(C#N)c(=O)n(CC(=O)Nc3ccc(Br)cc3)c2C)c1 [Compound 2a]	–	–	–	–	–	–	anti‐inflammatory activity in vivo [2]: anti‐inflammatory activity
COc1cccc(Nc2ccnn2CC(=O)Nc2ccc(Br)cc2)c1 [Compound 4e, N‐(4‐Bromophenyl)‐2‐[5‐(3‐methoxyphenylamino)‐pyrazol‐1‐yl]acetamide]	140 to 143 °C	85	75	8.2 ± 2.6	23.4 ± 5.3	60	EC50 [3]: 13.2 ± 2.6 µM
COc1cccc(-c2nn(CC(=O)Nc3ccc(Br)cc3)c(C)c2C#N)c1 [Compound 7a, N‐(4‐Bromophenyl)‐2‐[4‐cyano‐3‐(3‐methoxyphenyl)‐5‐methylpyrazol‐1‐yl]acetamide]	–	75	80	6.5 ± 1.6	6.1 ± 2.2	75	EC50 [3]: 18.4 ± 4.3 µM; preference for FPR2 ([5]; FPR2 over FPR1, from EC50 values): threefold
Nc1cn(-c2ccccc2)n(CC(=O)Nc2ccc(Br)cc2)c1=O [Compound 9b, 2‐(4‐Amino‐5‐oxo‐2‐phenyl‐2,5‐dihydropyrazol‐1‐yl)‐N‐(4‐bromophenyl)acetamide]	160 to 163 °C	–	–	–	23.1 ± 6.3	50	EC50 (µM) hPMN ([4]; Ca2+ mobilization in human neutrophils, mean of three independent experiments, N.A. = no activity (limits efficacy <20% and EC50 < 50 µM)): inactive
COc1cccc(Nc2cn(-c3ccccc3)n(CC(=O)Nc3ccc(Br)cc3)c2=O)c1 [Compound 10, N‐(4‐Bromophenyl)‐2‐[4‐(3‐methoxyphenylamino)‐5‐oxo‐2‐phenyl‐2,5‐dihydropyrazol‐1‐yl]acetamide]	163 to 166 °C	–	–	–	–	–	–
CCCCCCn1c(=O)c(-c2cccc(OC)c2)cn1-c1ccccc1 [Compound 13f, Hexyl‐4‐(3‐methoxyphenyl)‐1‐phenyl‐1,2‐dihydropyrazol‐3‐one]	–	35	55	13.8 ± 4.2	10.5 ± 3.5	90	EC50 [3]: 20.2 ± 5.4 µM
Cc1cc(OCC(=O)Nc2ccc(Br)cc2)n[nH]1 [Compound 15, N‐(4‐bromophenyl)‐2‐[(5‐methyl‐1H‐pyrazol‐3‐yl)oxy]acetamide]	–	60	55	18.6 ± 4.7	25.9 ± 6.4	60	EC50 [3]: 9.8 ± 2.7 µM
CC(C)c1c(NC(=O)Nc2ccc(Cl)cc2)c(=O)n(-c2ccccc2)n1C [Cpd43]	–	–	–	–	–	–	profile in animal models of rheumatoid arthritis [6]: excellent profile
COc1cccc(Cc2c(C)c(C)nn(CC(=O)Nc3ccc(Br)cc3)c2=O)c1 [EC3, reference compound]	–	85	150	–	–	80	anti‐inflammatory activity in vivo [2]: anti‐inflammatory activity; EC50 [3, 8]: 0.019 ± 0.005 µM; EC50 [7]; 2017: 40 nM; EC50 [5, 8]: 0.043 ± 0.0016 µM
COc1cccc(Nc2c(C(C)=O)c(C)nn(CC(=O)Nc3ccc(Br)cc3)c2=O)c1 [EC10, reference compound]	–	185	150	0.036 ± 0.007	–	60	anti‐inflammatory activity in vivo [2]: anti‐inflammatory activity; EC50 [3, 8]: 0.045 ± 0.016 µM; EC50 [7]; 2016: 210 nM; EC50 [5, 8]: 0.17 ± 0.038 µM

Further lines, with some results ahead:

melting point	Structure (SMILES)	efficacy (%) HL60‐FPR1 [3] [%]	efficacy (%) hPMN [4] [%]	EC50 [4] [µM]	EC50 [5] [µM]	efficacy (%) HL60‐FPR2 [5] [%]	further results
136 to 139 °C	COc1ccc(Nc2c(C#N)cnn2CC(=O)Nc2ccc(Br)cc2)cc1 [Compound 4b, N‐(4‐Bromophenyl)‐2‐[4‐cyano‐5‐(4‐methoxyphenylamino)pyrazol‐1‐yl]acetamide]	–	–	–	–	–	–
> 300 °C (dec.)	COc1cccc(Nc2c(C)c(-c3ccccc3)nn2CC(=O)Nc2ccc(Br)cc2)c1 [Compound 4c, N‐(4‐Bromophenyl)‐2‐[5‐(3‐methoxyphenylamino)‐4‐methyl‐3‐phenylpyrazol‐1‐yl]acetamide]	–	–	–	–	–	–
212 to 214 °C	COc1ccc(Nc2c(C)c(-c3ccccc3)nn2CC(=O)Nc2ccc(Br)cc2)cc1 [Compound 4d, N‐(4‐Bromophenyl)‐2‐[5‐(4‐methoxyphenylamino)‐4‐methyl‐3‐phenylpyrazol‐1‐yl]acetamide]	–	–	–	–	–	–
136 to 139 °C	O=C(Cn1c(=O)ccn1-c1ccccc1)Nc1ccc(Br)cc1 [Compound 9a, N‐(4‐Bromophenyl)‐2‐(5‐oxo‐2‐phenyl‐2,5‐dihydropyrazol‐1‐yl)acetamide]	–	–	–	–	–	–
